Values of other authors, collected in patent US20240216394A1, “GOLEXANOLONE FOR USE IN THE TREATMENT OF FATIGUE OR COGNITIVE IMPAIRMENT IN LIVER DISEASE PATIENTS” (Umecrine Cognition AB, priority 2021, published 2024).

Legend:
PBC-related fatigue = conditions: patients suffering from PBC-related fatigue
[1] = test system: rats following bile duct ligation (BDL)

Row | Compound | Benefit in PBC-related fatigue (PBC-related fatigue) | Effect on whole body fatigue [1]
1 | CNCCC(Oc1ccc(C(F)(F)F)cc1)c1ccccc1 (stereo not shown) [Fluoxetine] | neither have proven beneficial | –
2 | NC(=O)C[S+]([O-])C(c1ccccc1)c1ccccc1 (stereo not shown) [Modafinil] | neither have proven beneficial | –
3 | Rituximab | neither have proven beneficial | –
4 | dehydroepiandrosterone sulphate [DHEAS] | – | positive effect
